Experiments:
[1] = test system: MTAP− and MTAP+ cell lines (isogenic pairs); assay: Cell viability IC50 measurement (Cell Titer-Glo); assay type: cell-based
Experimental: Applicants tested the ability of these inhibitors to selectively impair viability of parental MTAP− cell lines compared to isogenic lines expressing MTAP, as well as parental MTAP+ cell lines compared to isogenic CRISPR-mediated MTAP knockout lines (FIG. 17).
Cell plating densities were determined by evaluating the number of cells required to achieve 70% confluency after 12 days in culture. Cells were seeded in 100 μL of media in 96-well plates (excluding wells in the first or last row or column) using the following densities in cells per well: LU99 at 360, H647 at 100, SF-172 at 35, SU8686 at 250, MIAPACA2 at 135, H838 at 73, H2126 at 1042, HCC44 at 62, KP2 at 292, H661 at 166, and H2030 at 250. Isogenic cell line pairs were seeded at the same densities for all experiments.
Drug was administered using the HP D300 digital dispenser (Hewlett-Packard). […] Media and drug were changed every 4 days.
Isogenic cell line pairs were plated and cultured in parallel for the same time period. Luminescence was measured according to the manufacturer's instructions using the EnVision Multilabel Reader (Perkin Elmer). Luminescence data from each well was normalized to luminescence from wells containing untreated cells on that same plate. IC50 was calculated by non-linear regression using the ‘log(inhibitor) vs. response (three parameters) analysis in GraphPad Prism 6.

[2] = biological target: PRMT5 (Homo sapiens, UniProt O14744); settings: cited from earlier work
Sequence of PRMT5 (O14744 whole entry): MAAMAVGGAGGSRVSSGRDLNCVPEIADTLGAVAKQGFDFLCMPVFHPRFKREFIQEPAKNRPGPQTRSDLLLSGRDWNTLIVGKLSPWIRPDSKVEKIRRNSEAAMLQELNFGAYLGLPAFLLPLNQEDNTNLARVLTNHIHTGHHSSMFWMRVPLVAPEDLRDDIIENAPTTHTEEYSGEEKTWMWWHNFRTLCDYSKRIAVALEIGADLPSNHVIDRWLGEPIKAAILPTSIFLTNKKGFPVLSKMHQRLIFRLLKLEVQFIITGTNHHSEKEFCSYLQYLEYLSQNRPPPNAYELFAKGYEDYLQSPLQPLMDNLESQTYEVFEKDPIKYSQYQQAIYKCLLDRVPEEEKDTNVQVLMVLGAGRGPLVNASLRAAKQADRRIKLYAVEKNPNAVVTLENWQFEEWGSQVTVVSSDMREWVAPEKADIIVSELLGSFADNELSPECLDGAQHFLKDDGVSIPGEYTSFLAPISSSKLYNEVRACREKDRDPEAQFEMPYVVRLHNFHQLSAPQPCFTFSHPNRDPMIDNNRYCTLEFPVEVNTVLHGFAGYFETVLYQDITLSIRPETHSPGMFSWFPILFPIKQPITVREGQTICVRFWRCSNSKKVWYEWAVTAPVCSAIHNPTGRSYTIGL
Sequence of PRMT5 (Q9BQA1 whole entry partner): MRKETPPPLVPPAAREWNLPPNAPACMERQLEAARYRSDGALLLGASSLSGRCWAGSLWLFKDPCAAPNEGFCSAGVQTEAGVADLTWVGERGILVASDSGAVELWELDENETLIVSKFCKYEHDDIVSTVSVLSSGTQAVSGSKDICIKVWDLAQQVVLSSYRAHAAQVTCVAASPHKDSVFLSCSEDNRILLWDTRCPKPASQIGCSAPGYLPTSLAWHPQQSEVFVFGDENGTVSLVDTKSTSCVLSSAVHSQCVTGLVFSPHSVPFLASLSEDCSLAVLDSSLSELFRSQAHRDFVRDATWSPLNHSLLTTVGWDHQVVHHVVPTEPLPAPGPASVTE

## O=C(NC[C@H](O)CN1CCc2ccccc2C1)c1cc(NC2COC2)ncn1 [EPZ015666]
[1]; SF-172 isogenic pair
  differential sensitivity between isogenic MTAP− and MTAP+ cells: absent altogether
[1]; parental MTAP+ vs MTAP− cell lines
  difference in mean IC50 values between MTAP+ and MTAP− cell lines: did not observe significant differences
[2]
  mode of inhibition of PRMT5: peptide-competitive and SAM-cooperative
